One data set relates to GSH. The data set is described as follows: Total GSH levels in cortical cultures. The data set is classed as cell-based. The settings on record: NEM. As for the experimental part: Cell cultures, transfection, and glutathione (GSH) measurement. […] Transfection was performed with Lipofectamine 2000 (Invitrogen). In the reporter gene assays, firefly luciferase activity in cell lysates was measured with a luminometer (Promega). Total GSH (reduced and oxidized) was determined as described (Lee et al., Biochem. Biophys. Res. Commun. 280:286-292, 2001).
One caveat to the mechanism of NEPP and other electrophilic compounds acting at the level of Keap1 to induce HO-1 transcription is that NEPP could potentially react indiscriminately with other thiol-containing compounds in cells. To approach this question, we assessed cellular glutathione (GSH) levels to determine whether NEPP11 would affect this abundant antioxidant thiol. Nepp11 or N-ethylmaleimide (NEM) was added at t=0 and levels of total GSH were measured at the indicated times. GSH content of control cortical cultures (set arbitrarily at 100%) was 46.8±4.5 nmol/mg protein. […] In fact, this scenario seems likely, because the Keap1/Nrf2 pathway regulates the expression of γ-GCL in addition to HO-1 (Itoh et al., Mol. Cell. Biol. 24:36-45, 2004). […]
Transfections were performed with Lipofectamine 2000 (Invitrogen), and firefly luciferase activity in cell lysates was measured with a luminometer in the reporter gene assays (Promega).

The next data set deals with cerebrocortical neurons. The data set is described as follows: NMDA-induced neuronal cell death (excitotoxicity) in cerebrocortical cultures. As to conditions: ZnPP 10 μM added simultaneously with NEPP11.
The target in data set [1] is T1, Keap1 (Mus musculus, UniProt Q9Z2X8).
T1 construct: expressed in transfected cells; host or cells: COS7 cells
T1 sequence (Q9Z2X8 whole entry): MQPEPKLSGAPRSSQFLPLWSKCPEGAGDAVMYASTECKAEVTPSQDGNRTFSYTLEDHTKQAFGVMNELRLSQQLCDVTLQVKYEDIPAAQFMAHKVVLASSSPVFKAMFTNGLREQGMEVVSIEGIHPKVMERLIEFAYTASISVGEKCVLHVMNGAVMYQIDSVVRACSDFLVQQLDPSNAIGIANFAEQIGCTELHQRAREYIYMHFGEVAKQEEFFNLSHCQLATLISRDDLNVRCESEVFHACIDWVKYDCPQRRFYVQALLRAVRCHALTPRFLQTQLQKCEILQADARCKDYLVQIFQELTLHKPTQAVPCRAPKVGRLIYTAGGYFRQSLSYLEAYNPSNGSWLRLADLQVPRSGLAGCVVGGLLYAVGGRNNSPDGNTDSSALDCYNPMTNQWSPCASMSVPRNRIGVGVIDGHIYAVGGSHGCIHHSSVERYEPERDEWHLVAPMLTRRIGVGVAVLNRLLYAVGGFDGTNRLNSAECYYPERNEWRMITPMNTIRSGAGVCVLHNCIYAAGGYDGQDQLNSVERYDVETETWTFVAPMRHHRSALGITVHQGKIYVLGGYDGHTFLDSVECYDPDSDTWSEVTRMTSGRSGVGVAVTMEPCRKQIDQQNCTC
The data set is described as follows: Binding of CAB/CA to Keap1 and Keap1 deletion mutants (streptavidin precipitation). As to conditions: COS7 cells, HA-WT Keap1, 10 μM CAB. As for the experimental part: (§1) (3) Expression vectors for HA-tagged Keap1 and Keap1 deletion mutants. These constructs were obtained from Dr. Akira Kobayashi of Tohoku University (Hosoya et al., J. Biol. Chem. 29:27244-27250, 2006; Kobayashi et al., Mol. Cell. Biol. 26:221-229, 2006).
(§2) Immunoprecipitation with agarose-immobilized streptavidin or antibody. PC12h cells (CAB- or vehicle-treated) were lysed in RIPA buffer supplemented with protease inhibitor cocktail. The lysates were centrifuged at 15,000 rpm for 10 min at 4° C., after which the supernatants were incubated with agarose-immobilized streptavidin at 4° C. for 1 h. Alternatively, for immunoprecipitation with anti-Keap1, the cell lysates were incubated with the antibody at 4° C. overnight, after which protein A immobilized on Sepharose CL-4B was added and incubation continued at 4° C. for 1 h. Then, the complexes were washed three times with rinse buffer (150 mM NaCl, 50 mM Tris-HCl [pH 7.5], 0.1% NP-40, 1 mM EDTA, and 0.02% NaN3). SDS sample buffer was added, the mixture was boiled for 5 min, and the supernatants were subjected to SDS-PAGE. Immunoblotting was then performed as described above.
(§3) CA activates the Keap1/Nrf2/ARE pathway. […] The initial reaction in this activation cascade is the binding of an electrophilic compound to specific cysteines on Keap1 protein (Hong et al., Chem. Res. Toxicol. 18: 1917-1926, 2005; Eggler et al., Proc. Nat. Acad. Sci. USA 102:10070-10075, 2005; Zhang et al., Mol. Cell. Biol. 10941-10953, 2004). Such binding initiates a cellular transcription pathway leading to induction of phase 2 enzymes (Talalay, Biofactors 12:5-11, 2000; Padmanabham et al., Mol. Cell 21:689-700, 2006; Itoh et al., Free Radic. Biol. Med. 36:1208-1213, 2004). Therefore, we examined the domains of Keap1 (designated BTB, IVR, and DGR) to determine those essential for binding to CA. Accordingly, for co-immunoprecipitation experiments, we transfected COS7 cells with DNA expressing either HA-tagged wild type Keap1 protein (HA-WT Keap1) or various deletion mutants of tagged Keap1 protein (HA-ΔBTB Keap1, HA-ΔIVR Keap1, and HA-ΔDGR Keap1). The transfected COS7 cells were then treated with vehicle or 10 μM CAB and lysed. We quantified the expression level of Keap1 protein in total cell lysates with anti-HA antibody. Each Keap1 mutant protein was expressed at a similar level of the predicted molecular weight (57 kDa for HA-ΔBTB Keap1, 53 kDa for HA-ΔIVR Keap1, and 37 kDa for HA-ΔDGR Keap1). Next, in order to detect Keap1/CAB complexes, we immunoprecipitated cell lysates with streptavidin and probed with anti-HA antibody. […] The requirement of the BTB domain for CA binding is in accord with prior results (Hong et al., Chem. Res. Toxicol. 18:1917-1926, 2005; Eggler et al., Proc. Nat. Acad. Sci. USA 102:10070-10075, 2005; Zhang et al., Mol. Cell. Biol. 24:10941-10953, 2004).
(§4) After binding of the electrophilic quinone-form of CA to Keap1 protein, activation of the Keap1/Nrf2 pathway requires nuclear translocation of Nrf2 (Talalay, Biofactors 12:5-11, 2000; Padmanabham et al., Mol. Cell 21:689-700, 2006; Itoh et al., Free Radic. Biol. Med. 36:1208-1213, 2004). Thus, we next examined the intracellular distribution of Nrf2 protein in COS7 cells by immunofluorescence.

In data set [2] the test system is Keap1. The description is as above. As to conditions: COS7 cells, 10 μM CAB. On the procedure: as §1, §2, §3, §4
The test system of the next data set is ARE. Put plainly: ARE(GSTYa)-luciferase reporter in PC12h cells. The data set is classed as cell-based. On the procedure: (1) pGL3-GSTYa ARE core-luciferase vector. […] The dsDNA thus obtained was inserted into the Mlu l and Bglll sites of the pGL3-promoter vector (Promega Co., Madison, Wis.).
Transient transfection and measurement of luciferase activity. PC12h cells or cerebrocortical cultures (E17, DIV21) were incubated for 5 h in EBSS containing 1 μg of a plasmid DNA plus Lipofectamine 2000 (Invitrogen, Carlsbad, Calif.). Transfection efficiency was normalized to β-galactosidase activity expressed by co-transfection with pSV-β-gal (Promega). For reporter gene assays, cells were transfected with 1 μg of the reporter construct [ARE(GSTYa)-luciferase] and 0.2 μg pSV-β-gal for 1 hour. […] Firefly luciferase activity and β-galactosidase activity in cell lysates were measured using a Luciferase System and β-Galactosidase Enzyme Assay System, respectively (Promega, Madison, Wis.).
Next, we examined the involvement of the Keap1/Nrf2 pathway more precisely by studying activation of the ARE. This transcription element responds to the Keap1/Nrf2 pathway; we monitored activation of the ARE by performing luciferase reporter gene assays using PC12h cells transfected with ARE(GSTYa)-luciferase (Alam et al., J. Biol. Chem. 274:26071-26077, 1999) in the presence or absence of an Nrf2 dominant-negative (DN) or Keap1 expression vector.
Background: In a reporter assay the amount or activity of a reporter protein is the signal.

Data set [3] relates to mixed neuronal/glial cortical cultures. Put plainly: Site of accumulation of biotin-labeled compound in mixed neuronal/glial cortical cultures. The data set is classed as cell-based, rat. The settings on record: E17 DIV21. As for the experimental part: Activation of the Keap1/Nrf2 pathway in Primary Cortical Cultures. To begin to test the effects of NEPP compounds on primary cerebrocortical neurons, we treated mixed neuronal/glial cortical cultures with NEPP6-biotin and then fixed and stained with rhodamine conjugated to streptavidin to determine the site of NEPP accumulation. Cortical cultures treated with NEPP6-biotin (10 μM) were stained with anti-MAP-2 monoclonal and rhodamine-conjugated streptavidin antibodies and with Hoechst 33,258 dye.
Immunocytochemistry. Cultures were fixed with 3% paraformaldehyde at room temperature for 20 min. After three washes in PBS, the cells were permeabilized with 0.3% Triton X-100 for 5 min. After three additional washes in PBS, the cells were incubated at 4° C. overnight with primary antibodies. They were then washed three times in PBS containing 0.2% Tween 20 (PBS-T), and next incubated with secondary antibodies for 1 h at room temperature. Thereafter, the cells were again washed, and their nuclei stained with Hoechst 33,258 (5 μg/ml) or with DAPI (1 μg/ml) for 5 min. Stained preparations were mounted and examined by epifluorescence microscopy. The following primary antibodies were used: anti-Nrf2 antibody, anti-MAP2 and anti-NeuN antibodies to identify neurons (dendrites and nuclei, respectively), and anti-S100β antibody to identify astrocytes. […]

The next data set relates to PC12h cells. The data set is described as follows: Oxidative glutamate toxicity in PC12h cells (MTT assay). It counts as cell-based. For orientation: Tetrazolium assays rely on reduction of a dye to a coloured formazan, in cell work by metabolically active cells.
For data set [4], the target named is T2, bovine serum albumin (BSA) (Bos taurus, UniProt P02769).
T2 construct: purchased WAKO Chemicals Inc. (Tokyo, Japan) or Sigma (St. Louis, Mo.)
T2 sequence (P02769 25-607): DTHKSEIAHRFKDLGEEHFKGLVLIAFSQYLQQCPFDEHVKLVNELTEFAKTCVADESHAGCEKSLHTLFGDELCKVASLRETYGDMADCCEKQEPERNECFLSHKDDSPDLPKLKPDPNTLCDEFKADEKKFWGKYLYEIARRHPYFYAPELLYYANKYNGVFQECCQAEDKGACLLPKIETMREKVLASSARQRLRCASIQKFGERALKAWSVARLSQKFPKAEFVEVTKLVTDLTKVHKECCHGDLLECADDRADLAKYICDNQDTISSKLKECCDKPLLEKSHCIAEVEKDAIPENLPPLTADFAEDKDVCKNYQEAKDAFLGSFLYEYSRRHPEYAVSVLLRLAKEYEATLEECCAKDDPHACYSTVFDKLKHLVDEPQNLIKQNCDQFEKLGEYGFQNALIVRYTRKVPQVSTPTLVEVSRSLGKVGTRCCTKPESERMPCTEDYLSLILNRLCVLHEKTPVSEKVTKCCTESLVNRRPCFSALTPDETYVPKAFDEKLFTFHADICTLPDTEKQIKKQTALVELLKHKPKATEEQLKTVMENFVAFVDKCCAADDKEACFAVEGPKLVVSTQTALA
Put plainly: Adduct formation with free cysteine of BSA (streptavidin blot). It counts as binding. As to conditions: PBS, room temperature, 5 h, streptavidin probe.
Experimental: We tested whether the free cysteine of bovine serum albumin (BSA) could form an adduct with NEPP compounds. If carbon #11 on the NEPP compounds binds to this free cysteine of BSA, then pretreatment with N-ethylmaleimide (NEM), in irreversible thiol alkylating agent, would abolish this binding. […] With streptavidin as a probe, we could then detect proteins bound to NEPP6-biotin. In order to study thiols as targets of NEPP binding, BSA (1 μg per lane) was incubated with various concentrations (0-1000 μM) of N-ethylmaleimide (NEM) for 30 minutes at room temperature. Vehicle or NEPP6-biotin (10 μM) in phosphate-buffered saline (PBS) was added and the mixture was incubated at room temperature for 5 h, subjected to sodium dodecyl sulfate polyacrylamide gel electrophoresis (SDS-PAGE), and probed with peroxidase-conjugated streptavidin. The gel was also stained with Coomassie brilliant blue.

Molecules are shown by their SMILES.

Experimental for cerebrocortical neurons: We stained the cultures with both anti-MAP-2 and anti-NeuN monoclonal antibodies to label neuronal dendrites and nuclei, respectively. Vehicle or NEPP11 (0.7 μM) was added to cerebrocortical cultures (E17 and DIV14-21) 60 min before treatment with NMDA (50 μM) for 15 min. The cultures were then incubated for 20 h and subsequently stained with anti-MAP-2 and anti-NeuN and with Hoechst dye. Apoptotic nuclei were identified by morphological changes seen with Hoechst staining. […] We also added zinc protoporphyrin (ZnPP, 10 μM), a relatively specific HO-1 antagonist, simultaneously with NEPP11. The number of apoptotic neurons was assessed by determining the apoptotic index [(number of condensed nuclei in MAP-2 or NeuN-positive cells)/(number of total MAP-2 or NeuN-positive cells)×100%], as reported by Bonfoco et al. (Proc. Natl. Acad. Sci. USA 92:7162-7166, 1995).
Cerebrocortical cultures were prepared from embryonic day-17 Sprague-Dawley rats and used at day 14-21 in vitro (DIV14-21), as described (Bonfoco et al., Proc. Natl. Acad. Sci. USA 92:7162-7166, 1995). To induce predominantly neuronal apoptosis (rather than necrosis), we exposed cortical cultures to 50 mM NMDA plus 5 mM glycine/1.8 mM CaCl2 in nominally Mg^2+-free Earle's balanced salt solution for 15 min (Bonfoco et al., Proc. Natl. Acad. Sci. USA 92:7162-7166, 1995). After exposure to NMDA, the cultures were returned to normal medium containing vehicle or NEPP11 and incubated for 20 hr before analyzing cell survival. To assess the ability of NEPP compounds to block NMDA-induced neuronal apoptosis, we identified apoptotic neurons by double immunofluorescence with anti-NeuN and anti-MAP-2 to specifically label neurons and with Hoechst staining for nuclear morphology to detect apoptosis. The percentage of neurons and non-neuronal cells in our cultures was 33.6±4.9% and 66.4±4.4% (n=4), respectively.
In addition, we used mature cortical cultures (E17, DIV21) to assess excitotoxicity because functional NMDA receptors are expressed on these neurons.

On to `CCN1C(=O)C=CC1=O` [NEM, N-ethylmaleimide, reference compound], for which the “outcome for neurons in cortical cultures” value in the data set on GSH is “neuronal death after 24 h”.

In the case of `C=CC1=C(C)c2cc3[n-]c(cc4nc(cc5[n-]c(cc1n2)c(C)c5C=C)C(C)=C4CCC(=O)O)c(CCC(=O)O)c3C.[Zn+2]` [ZnPP, zinc protoporphyrin, reference compound], in the data set with cerebrocortical neurons, the “effect of HO-1 antagonist on neuroprotection by NEPP11” value was “abrogated the neuroprotective effect of NEPP11”.

Turning to `CC(C)c1cc2c(c(O)c1O)C1(C(=O)NCCCCCNC(=O)CCCCC3SCC4NC(=O)NC43)CCCC(C)(C)C1CC2` (stereo not shown) [CAB], the “binding to Keap1-WT (73-kDa protein)” value on Keap1 [1] is listed as “observed in cells treated with CAB”. Also, in the data set on Keap1 [2], the “binding to IVR Keap1” value is listed as “very little binding”, the “binding to ΔBTB Keap1” value is given as “no binding at all” and the “binding to ΔDGR Keap1” value is reported as “strong binding”. Moreover, the “ARE activation relative to CA” value in the data set on ARE (20 μM CAB versus 10 μM CA) is on record as “to a much lesser extent”. The “activation of the ARE” value in the data set on ARE (PC12h cells, CAB) is recorded as “significantly activated the ARE”. The “site of accumulation at low concentration” value in data set [3] (CAB 3 μM) was “non-neuronal cells were strongly positive”. Moreover, in data set [3] (CAB 10 μM), the “site of accumulation at higher concentration” value is given as “neurons were also labeled”. Moreover, the “level required to protect PC12h cells, relative to CA” value in the data set on PC12h cells was “a greater level of CAB than CA was required”. Besides, the “adduct formation with BSA” value in data set [4] is “a single band (68 kDa) corresponding to the complex of BSA and CAB was detected”.

`C[S+]([O-])CCCCN=C=S` (stereo not shown) [sulforaphane, reference compound]: the “protection of PC12h cells against oxidative glutamate toxicity” value in the data set on PC12h cells is “did not protect”.

These data come from US8466311B2, “Neuroprotective compositions and methods” (Sanford-Burnham Medical Research Institute, priority 2006, dated 2013).
